Source: the CheMixHub ionic liquid set
± gives the uncertainty stated by the source.

Assay: xn = mol fraction of the nth substance listed
Conditions: 100 kPa

For `CCCC[P+](CCCC)(CCCC)CCCC.F[B-](F)(F)F` + CC#N + C1COCO1, the viscosity (298.15 K, x1 = 0.0005495, x2 = 0.8436) was 0.41 ± 0.007 mPa·s, the viscosity (298.15 K, x1 = 0.0005755, x2 = 0.6431) was 0.471 ± 0.008 mPa·s and the viscosity (298.15 K, x1 = 0.0006287, x2 = 0.3754) was 0.532 ± 0.008 mPa·s. It also gave a viscosity (298.15 K, x1 = 0.0008217, x2 = 0.8434) of 0.414 ± 0.007 mPa·s, a viscosity (298.15 K, x1 = 0.0008656, x2 = 0.6429) of 0.476 ± 0.008 mPa·s and a viscosity (298.15 K, x1 = 0.0009366, x2 = 0.3753) of 0.537 ± 0.008 mPa·s. The viscosity (298.15 K, x1 = 0.001098, x2 = 0.8432) was 0.418 ± 0.007 mPa·s, the viscosity (298.15 K, x1 = 0.001156, x2 = 0.6427) was 0.481 ± 0.008 mPa·s and the viscosity (298.15 K, x1 = 0.00125, x2 = 0.3751) was 0.543 ± 0.008 mPa·s. For the same compound, the viscosity (298.15 K, x1 = 0.001375, x2 = 0.8429) was 0.422 ± 0.008 mPa·s, the viscosity (298.15 K, x1 = 0.001445, x2 = 0.6425) was 0.486 ± 0.008 mPa·s and the viscosity (298.15 K, x1 = 0.001564, x2 = 0.375) was 0.548 ± 0.008 mPa·s. For the same compound, the viscosity (298.15 K, x1 = 0.001651, x2 = 0.8427) was 0.426 ± 0.008 mPa·s, the viscosity (298.15 K, x1 = 0.00174, x2 = 0.6423) was 0.491 ± 0.008 mPa·s and the viscosity (298.15 K, x1 = 0.001878, x2 = 0.3749) was 0.554 ± 0.008 mPa·s. The viscosity (298.15 K, x1 = 0.001927, x2 = 0.8425) was 0.43 ± 0.008 mPa·s, the viscosity (298.15 K, x1 = 0.00203, x2 = 0.6421) was 0.496 ± 0.008 mPa·s and the viscosity (298.15 K, x1 = 0.002191, x2 = 0.3748) was 0.56 ± 0.008 mPa·s.
For `CN(C)c1ccccc1` + CCCC[n+]1ccn(C)c1.O=S(=O)([O-])C(F)(F)F, the viscosity (288.15 K, x1 = 0.2998) was 54 ± 2.4 mPa·s, the viscosity (288.15 K, x1 = 0.397) was 39.3 ± 1.8 mPa·s and the viscosity (288.15 K, x1 = 0.6997) was 10.05 ± 0.45 mPa·s. For the same compound, the viscosity (288.15 K, x1 = 1) was 1.536 ± 0.068 mPa·s, the viscosity (293.15 K, x1 = 1) was 1.415 ± 0.063 mPa·s and the viscosity (298.15 K, x1 = 0.397) was 25.9 ± 1.1 mPa·s. The viscosity (298.15 K, x1 = 0.8945) was 2.63 ± 0.12 mPa·s, the viscosity (308.15 K, x1 = 0.2) was 30.7 ± 1.4 mPa·s and the viscosity (313.15 K, x1 = 0.2) was 25.2 ± 1.1 mPa·s. The viscosity (313.15 K, x1 = 0.6997) was 5.03 ± 0.22 mPa·s, the viscosity (318.15 K, x1 = 0.1) was 27.1 ± 1.2 mPa·s and the viscosity (318.15 K, x1 = 0.6997) was 4.54 ± 0.2 mPa·s. It also gave a viscosity (318.15 K, x1 = 0.8945) of 1.828 ± 0.081 mPa·s, a viscosity (323.15 K, x1 = 1) of 0.92 ± 0.041 mPa·s and a viscosity (328.15 K, x1 = 0.1) of 19.6 ± 0.87 mPa·s. The viscosity (328.15 K, x1 = 0.8945) was 1.569 ± 0.07 mPa·s, the viscosity (333.15 K, x1 = 0.1) was 16.91 ± 0.75 mPa·s and the viscosity (333.15 K, x1 = 0.5045) was 6.71 ± 0.3 mPa·s. For the same compound, the viscosity (333.15 K, x1 = 0.8945) was 1.463 ± 0.065 mPa·s.
